Legend:
MV4;11-mCLP leukemia = experiment: MV4;11 xenograft model; format: in vivo, mice
Description: The MV4;11 xenograft model was performed as previously described (Etchin, J. et al. Antileukemic activity of nuclear export inhibitors that spare normal hematopoietic cells. Leukemia 27, 66-74 (2013)). Two-million MV4;11-mCLP cells were injected into the tail vein of 7-week-old female non-obese diabetic-severe combined immuno-deficient (NOD-SCID)Il2rg^−/− (NSG) mice (The Jackson Laboratory) and tumour burden was assessed by bioluminescence imaging (BLI) using an IVIS Spectrum system (Caliper Life Sciences). Seven days after injection, leukaemia establishment was documented by BLI and mice were assigned to groups to achieve a similar mean BLI and treated intraperitoneally with vehicle (20% hydroxypropyl-β-cyclodextrin) or CA once daily for 15 days. After 30 days, blood counts were obtained (Hemavet 950 F, Drew Scientific) and spleen, femur and peripheral blood cells were collected and analysed by flow cytometry (LSR Fortessa, BD Biosciences) from three mice per group, having the highest, lowest and median BLI value. […]
(§1) Samples from all organs were then dissected and placed in nine cassettes per mouse. […] Survival was measured as the time from therapy initiation until moribund state. […]
as §1

[1] = system: ruxolitnib persistence cells; experiment: Growth inhibition in ruxolitinib persistent cells; format: cell-based; conditions: FIG. 5 legend; read-out: G150 in ruxolitnib persistence cells
RUNX1 = RUNX1 recruitment to genomic loci; format: cell-based; conditions: FIG. 11
HCC827 = experiment: Soft agar growth assay; format: cell-based; conditions: HCC827, Non small cell lung carcinoma, EGFR mutation, 100 nM
Description: (§2) For the 62 cell lines 96 well suspension cell culture plates were prepared. 100 μL of the soft agar bottom layer (0.6% final concentration in complete medium) was poured and left to solidify. 50 μL of the soft agar top layer (0.4% final concentration) containing the corresponding cells and cell number were then added on top, solidified and incubated at 37° C., 10% CO2. After the soft agar had solidified, the test items were added at indicated final concentrations into the inner wells of the plate. Subsequently, the assay was incubated in cell culture incubators for 8 to 14 days. Finally, the assay was developed using Alamar Blue and upon 1-5 h of incubation at 37° C. fluorescence intensity was determined (excitation: 560 nm; emission: 590 nm). As low control, cells were treated with 1E-05M Staurosporine (6fold values). As high control, cells were treated with 0.1% DMSO (solvent control, 6 fold values).
(§3) Raw data were converted into percent soft agar growth relative to high controls (solvent 0.1% DMSO) and low controls (1E-05M Staurosporine), which were set to 100% and 0%, respectively. The results are tabulated in FIGS. 15A, 15B, and 15C and Table 4 below.

SK.BR-3 = experiment: Soft agar growth assay; format: cell-based; conditions: SK.BR-3, Breast cancer, HER2 overexpression, 100 nM
Description: as §2, §3

MCF-7 = experiment: Soft agar growth assay; format: cell-based; conditions: MCF-7, Breast cancer, ER-alpha positive, 100 nM
Description: as §2, §3

SK-ES-1 = experiment: Soft agar growth assay; format: cell-based; conditions: SK-ES-1, Osteosarcoma, EWS-FLI1, 100 nM
Description: as §2, §3

T47D = experiment: Soft agar growth assay; format: cell-based; conditions: Breast cancer, ER-alpha positive, 100 nM
Description: as §2, §3

A498 = experiment: Soft agar growth assay; format: cell-based; conditions: A498, clear cell renal cell carcinoma, VHL negative, 100 nM
Description: as §2, §3

SK-N-F1 = experiment: Soft agar growth assay; format: cell-based; conditions: SK-N-F1, Neuroblastoma, 100 nM
Description: as §2, §3

NCI-N87 = experiment: Soft agar growth assay; format: cell-based; conditions: NCI-N87, Gastric cancer, HER2 overexpression, 100 nM
Description: as §2, §3

MKN-45 = experiment: Soft agar growth assay; format: cell-based; conditions: MKN-45, Gastric cancer, MET amplification, 100 nM
Description: as §2, §3

SK-N-SH = experiment: Soft agar growth assay; format: cell-based; conditions: Neuroblastoma, 100 nM
Description: as §2, §3

U87MG = experiment: Soft agar growth assay; format: cell-based; conditions: Glioma, inactivating mutations in ETV1, FLI1 and SMC3, 100 nM
Description: as §2, §3

Caki-2 = experiment: Soft agar growth assay; format: cell-based; conditions: Caki-2, clear cell renal cell carcinoma, VHL negative, 100 nM
Description: as §2, §3

RL95-2 = experiment: Soft agar growth assay; format: cell-based; conditions: RL95-2, Endometrial cancer, ER-alpha positive, 100 nM
Description: as §2, §3

Cortistatin A
leukemia cells in the lungs (haematoxylin and eosin staining) (MV4;11-mCLP leukemia; MV4;11 AML mice, Day 30, vs vehicle): fewer leukemia cells in the lungs
spleen weight (MV4;11-mCLP leukemia; NSG mice, disseminated MV4;11-mCLP leukemia, once daily IP for 15 days, 15 days after stopping treatment): prevents spleen weight increase
IC50 [1]: 2 to 10 nM
RUNX1 recruitment to loci (RUNX1): recruited
% growth rel. to vehicle (HCC827): 23%
% growth rel. to vehicle (SK.BR-3): 22%
% growth rel. to vehicle (MCF-7): 49%
% growth rel. to vehicle (SK-ES-1): 36%
% growth rel. to vehicle (T47D): 48%
% growth rel. to vehicle (A498): 51%
% growth rel. to vehicle (SK-N-F1): 30%
% growth rel. to vehicle (NCI-N87): 26%
% growth rel. to vehicle (MKN-45): 27%
% growth rel. to vehicle (SK-N-SH): 29%
% growth rel. to vehicle (U87MG): 36%
% growth rel. to vehicle (Caki-2): 18%
% growth rel. to vehicle (RL95-2): 16%
